Laboratory results published in patent publication US11638707B2, “Substituted amino triazoles useful as chitinase inhibitors” (Molecure S.A., priority 2019, dated 2023).
pIC50: −log10 of the molar value. Where a name gives a salt, the structure may show the parent alone.

Key:
recombinant human AMCase = recombinant human AMCase (Homo sapiens (Human), UniProt Q9BZP6); assay: Human AMCase activity assay; assay type: biochemical; details: citrate buffer pH 5.2, 37° C., 60 minutes, read-out: hAMCase, IC50
recombinant human AMCase, sequence (Q9BZP6 22-476): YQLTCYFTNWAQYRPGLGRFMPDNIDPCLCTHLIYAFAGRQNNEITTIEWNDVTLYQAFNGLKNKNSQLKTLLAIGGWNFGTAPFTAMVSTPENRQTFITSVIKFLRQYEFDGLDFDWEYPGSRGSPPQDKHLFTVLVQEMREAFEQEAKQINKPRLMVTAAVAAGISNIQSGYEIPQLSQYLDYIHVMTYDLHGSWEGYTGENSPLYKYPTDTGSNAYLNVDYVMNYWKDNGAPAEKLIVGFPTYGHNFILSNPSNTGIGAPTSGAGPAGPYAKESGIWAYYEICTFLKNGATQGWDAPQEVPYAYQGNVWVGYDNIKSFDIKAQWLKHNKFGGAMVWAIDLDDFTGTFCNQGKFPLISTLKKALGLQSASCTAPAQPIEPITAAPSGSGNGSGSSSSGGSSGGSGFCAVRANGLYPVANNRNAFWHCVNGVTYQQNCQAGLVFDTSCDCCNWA
In short: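 Recombinant hAMCase hydrolysed 4-methylumbelliferyl β-D-N,N′-diacetylchitobioside in citrate buffer pH 5.2, run 60 min at 37 °C in the dark with shaking. Released 4MU fluorescence was read at 460 nm under basic pH, and IC50 values were fitted from the compound dilutions.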

hERG channel = hERG channel (Homo sapiens (Human), UniProt Q12809); assay: Human ERG channel binding assay (fluorescence polarization); details: Table 1; tracer displacement, 4 h at room temperature
hERG channel, sequence (Q12809 whole entry): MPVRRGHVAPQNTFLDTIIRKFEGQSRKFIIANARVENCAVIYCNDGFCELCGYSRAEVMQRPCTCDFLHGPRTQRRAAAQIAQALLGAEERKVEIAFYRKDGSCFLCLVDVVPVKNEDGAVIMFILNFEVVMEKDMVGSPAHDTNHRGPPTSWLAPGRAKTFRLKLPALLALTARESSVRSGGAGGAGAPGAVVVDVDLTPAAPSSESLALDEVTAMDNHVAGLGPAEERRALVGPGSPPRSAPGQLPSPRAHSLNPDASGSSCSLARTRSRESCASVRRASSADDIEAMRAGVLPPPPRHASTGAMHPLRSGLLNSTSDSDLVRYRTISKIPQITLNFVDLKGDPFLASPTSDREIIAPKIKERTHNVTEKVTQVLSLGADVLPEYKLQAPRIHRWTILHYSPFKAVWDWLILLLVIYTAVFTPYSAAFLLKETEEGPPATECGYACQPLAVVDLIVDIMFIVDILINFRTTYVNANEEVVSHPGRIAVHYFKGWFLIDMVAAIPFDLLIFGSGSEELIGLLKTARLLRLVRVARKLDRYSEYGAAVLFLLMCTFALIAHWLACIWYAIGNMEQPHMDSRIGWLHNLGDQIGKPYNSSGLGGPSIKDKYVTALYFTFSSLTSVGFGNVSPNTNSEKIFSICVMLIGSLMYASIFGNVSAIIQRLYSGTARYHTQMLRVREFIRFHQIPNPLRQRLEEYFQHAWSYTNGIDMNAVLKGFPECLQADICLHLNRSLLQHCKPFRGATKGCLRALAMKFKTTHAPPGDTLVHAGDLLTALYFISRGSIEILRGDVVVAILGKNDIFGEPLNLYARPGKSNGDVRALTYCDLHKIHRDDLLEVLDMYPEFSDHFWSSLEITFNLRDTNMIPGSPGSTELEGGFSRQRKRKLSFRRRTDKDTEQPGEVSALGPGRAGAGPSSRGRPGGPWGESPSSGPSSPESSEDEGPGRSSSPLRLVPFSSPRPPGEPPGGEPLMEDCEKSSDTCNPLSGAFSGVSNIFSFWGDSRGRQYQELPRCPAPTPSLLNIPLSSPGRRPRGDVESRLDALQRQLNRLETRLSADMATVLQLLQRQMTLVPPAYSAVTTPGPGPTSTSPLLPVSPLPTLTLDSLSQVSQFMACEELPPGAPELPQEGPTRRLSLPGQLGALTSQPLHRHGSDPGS
In short: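 Serially diluted compounds were incubated with a hERG-containing membrane fraction and a high-affinity red-shifted fluorescent hERG ligand. Displacement of the tracer was read by fluorescence polarization, and IC50 values were derived from the concentration-response curves.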

recombinant human CHIT1 = recombinant human CHIT1 (Homo sapiens (Human), UniProt Q13231); assay: Human CHIT1 activity assay; assay type: biochemical; details: recombinant human CHIT1, citrate buffer pH 5.2, 37° C., 60 minutes; read-out: hCHIT1, IC50
recombinant human CHIT1, sequence (Q13231 22-466): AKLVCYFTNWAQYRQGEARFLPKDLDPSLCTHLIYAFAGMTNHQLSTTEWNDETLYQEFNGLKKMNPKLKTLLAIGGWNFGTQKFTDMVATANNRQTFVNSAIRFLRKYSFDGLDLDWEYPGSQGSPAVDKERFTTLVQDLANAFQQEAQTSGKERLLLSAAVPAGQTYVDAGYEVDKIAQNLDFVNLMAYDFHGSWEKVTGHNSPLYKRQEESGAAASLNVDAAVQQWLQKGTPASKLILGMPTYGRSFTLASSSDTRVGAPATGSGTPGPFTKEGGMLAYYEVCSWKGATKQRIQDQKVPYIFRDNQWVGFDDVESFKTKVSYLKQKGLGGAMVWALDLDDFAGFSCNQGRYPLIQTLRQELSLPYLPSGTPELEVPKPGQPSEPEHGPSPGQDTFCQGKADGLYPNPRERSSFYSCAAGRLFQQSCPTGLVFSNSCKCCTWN
In short: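 Recombinant human CHIT1 hydrolysed 4-methylumbelliferyl β-D-N,N′,N″-triacetylchitotriose in citrate buffer, pH 5.2, for 60 minutes at 37° C in the dark with shaking. Released 4MU was read by fluorescence at 460 nm under basic pH; IC50 values were calculated from dilution series.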

pIC50 (recombinant human AMCase)	pIC50 (recombinant human CHIT1)	SMILES	pIC50 (hERG channel)
> 7.00	> 7.00	Nc1nnc(N2CCC(N3C[C@H](CF)OC[C@@H]3Cc3ccc(Br)cc3)CC2)[nH]1 [Example 76, 5-(4-((2R,5S)-5-(4-bromobenzyl)-2-(fluoromethyl)morpholino)piperidin-1-yl)-4H-1,2,4-triazol-3-amine 2,2,2-trifluoroacetate]	< 4.00
> 7.00	> 7.00	C[S+]([O-])C[C@H]1CN(C2CCN(c3nnc(N)[nH]3)CC2)[C@@H](Cc2ccc(Cl)cc2)CO1 (stereo partly drawn) [Example 32, 5-(4-((2R,5S)-5-(4-chlorobenzyl)-2-((methylsulfinyl)methyl)morpholino)piperidin-1-yl)-4H-1,2,4-triazol-3-amine dihydrochloride]	< 4.00
> 7.00	6.00 to 7.00	Nc1nnc(N2CCC(N3C[C@@H]4COCCN4C[C@@H]3Cc3ccc(Cl)cc3)CC2)[nH]1 [Example 73, 5-(4-((7S,9aR)-7-(4-chlorobenzyl)hexahydropyrazino[2,1-c][1,4]oxazin-8(1H)-yl)piperidin-1-yl)-4H-1,2,4-triazol-3-amine hydrochloride]	5.00 to 6.00
> 7.00	> 7.00	CCC(O)(CC)[C@H]1CN(C2CCN(c3nnc(N)[nH]3)CC2)[C@@H](Cc2ccc(Cl)cc2)CO1 [Example 68, 3-((2R,5S)-4-(1-(5-amino-4H-1,2,4-triazol-3-yl)piperidin-4-yl)-5-(4-chlorobenzyl)-morpholin-2-yl)pentan-3-ol 2,2,2-trifluoroacetate]	4.00 to 4.60
> 7.00	> 7.00	Nc1nnc(N2CCC(N3C[C@H](Cn4cc(F)cn4)OC[C@@H]3Cc3ccc(Cl)cc3)CC2)[nH]1 [Example 36, 5-(4-((2R,5S)-5-(4-chlorobenzyl)-2-((4-fluoro-1H-pyrazol-1-yl)methyl)-morpholino)piperidin-1-yl)-4H-1,2,4-triazol-3-amine 2,2,2-trifluoroacetate]	4.60 to 5.00
> 7.00	> 7.00	Nc1nnc(N2CCC(N3C[C@H](N4CCOCC4)C[C@@H]3Cc3ccc(Cl)cc3)CC2)[nH]1 [Example 55, 5-(4-((2S,4R)-2-(4-chlorobenzyl)-4-morpholinopyrrolidin-1-yl)piperidin-1-yl)-4H-1,2,4-triazol-3-amine 2,2,2-trifluoroacetate]	4.00 to 4.60
> 7.00	> 7.00	Nc1nnc(N2CCC(N3C[C@H](Cn4ccnc4)OC[C@@H]3Cc3ccc(Cl)cc3)CC2)[nH]1 [Example 47, 5-(4-((2R,5S)-2-((1H-imidazol-1-yl)methyl)-5-(4-chlorobenzyl)morpholino)-piperidin-1-yl)-4H-1,2,4-triazol-3-amine 2,2,2-trifluoroacetate]	4.60 to 5.00
> 7.00	> 7.00	CS(=O)(=O)CCNC(=O)[C@H]1CN(C2CCN(c3nnc(N)[nH]3)CC2)[C@@H](Cc2ccc(Cl)cc2)CO1 [Example 45, (2R,5S)-4-(1-(5-amino-4H-1,2,4-triazol-3-yl)piperidin-4-yl)-5-(4-chlorobenzyl)-N-(2-(methylsulfonyl)ethyl)morpholine-2-carboxamide 2,2,2-trifluoroacetate]	< 4.00
> 7.00	6.00 to 7.00	CC1CN(C[C@H]2CN(C3CCN(c4nnc(N)[nH]4)CC3)[C@@H](Cc3ccc(Cl)cc3)CO2)C1 [Example 51, 5-(4-((2S,5S)-5-(4-chlorobenzyl)-2-((3-methylazetidin-1-yl)methyl)morpholino)-piperidin-1-yl)-4H-1,2,4-triazol-3-amine 2,2,2-trifluoroacetate]	4.00 to 4.60
> 7.00	6.00 to 7.00	Nc1nnc(N2CCC(N3C[C@H](C(=O)N4CCC(F)(F)CC4)OC[C@@H]3Cc3ccc(Cl)cc3)CC2)[nH]1 [Example 53, ((2R,5S)-4-(1-(5-amino-4H-1,2,4-triazol-3-yl)piperidin-4-yl)-5-(4-chlorobenzyl)-morpholin-2-yl)(4,4-difluoropiperidin-1-yl)methanone 2,2,2-trifluoroacetate]	4.00 to 4.60
> 7.00	> 7.00	CC1CN(C(=O)[C@H]2CN(C3CCN(c4nnc(N)[nH]4)CC3)[C@@H](Cc3ccc(Cl)cc3)CO2)C1 [Example 61, ((2R,5S)-4-(1-(5-amino-4H-1,2,4-triazol-3-yl)piperidin-4-yl)-5-(4-chlorobenzyl)-morpholin-2-yl)(3-methylazetidin-1-yl)methanone 2,2,2-trifluoroacetate]	< 4.00
> 7.00	> 7.00	CC(C)CNC(=O)[C@H]1CN(C2CCN(c3nnc(N)[nH]3)CC2)[C@@H](Cc2ccc(Cl)cc2)CO1 [Example 69, (2R,5S)-4-(1-(5-amino-4H-1,2,4-triazol-3-yl)piperidin-4-yl)-5-(4-chlorobenzyl)-N-isobutylmorpholine-2-carboxamide 2,2,2-trifluoroacetate]	4.00 to 4.60
> 7.00	> 7.00	Cc1cc([C@H]2CN(C3CCN(c4nnc(N)[nH]4)CC3)[C@@H](Cc3ccc(Cl)cc3)CO2)[nH]n1 [Example 34, 5-(4-((2R,5S)-5-(4-chlorobenzyl)-2-(3-methyl-1H-pyrazol-5-yl)morpholino)-piperidin-1-yl)-4H-1,2,4-triazol-3-amine 2,2,2-trifluoroacetate]	4.00 to 4.60

More lines, now with the values behind:

SMILES	pIC50 (recombinant human AMCase)	pIC50 (recombinant human CHIT1)	pIC50 (hERG channel)
Nc1nnc(N2CCC(N3C[C@H](CF)OC[C@@H]3Cc3ccc(Cl)cc3)CC2)[nH]1 [Example 3, 5-(4-((2R,5S)-5-(4-chlorobenzyl)-2-(fluoromethyl)morpholino)piperidin-1-yl)-4H-1,2,4-triazol-3-amine 2,2,2-trifluoroacetate]	> 7.00	> 7.00	< 4.00
Nc1nnc(N2CCC(N3C[C@H](CN4CCOCC4)OC[C@@H]3Cc3ccc(Cl)cc3)CC2)[nH]1 [Example 15, 5-(4-((2S,5S)-5-(4-chlorobenzyl)-2-(morpholinomethyl)morpholino)piperidin-1-yl)-4H-1,2,4-triazol-3-amine 2,2,2-trifluoroacetate]	> 7.00	> 7.00	< 4.00
Nc1nnc(N2CCC(N3C[C@H]([C@H](O)C(F)(F)F)OC[C@@H]3Cc3ccc(Cl)cc3)CC2)[nH]1 [Example 16, (S)-1-((2R,5S)-4-(1-(5-amino-4H-1,2,4-triazol-3-yl)piperidin-4-yl)-5-(4-chloro-benzyl)morpholin-2-yl)-2,2,2-trifluoroethanol 2,2,2-trifluoroacetate]	> 7.00	> 7.00	< 4.00
Nc1nnc(N2CCC(N3C[C@H](C(=O)NCC(F)F)OC[C@@H]3Cc3ccc(Cl)cc3)CC2)[nH]1 [Example 25, (2R,5S)-4-(1-(5-amino-4H-1,2,4-triazol-3-yl)piperidin-4-yl)-5-(4-chlorobenzyl)-N-(2,2-difluoroethyl)morpholine-2-carboxamide 2,2,2-trifluoroacetate]	> 7.00	> 7.00	< 4.00
Nc1nnc(N2CCC(N3C[C@H](CN4CCCC4)OC[C@@H]3Cc3ccc(Cl)cc3)CC2)[nH]1 [Example 28, 5-(4-((2S,5S)-5-(4-chlorobenzyl)-2-(pyrrolidin-1-ylmethyl)morpholino)piperidin-1-yl)-4H-1,2,4-triazol-3-amine 2,2,2-trifluoroacetate]	> 7.00	> 7.00	< 4.00
CC1(C)CC1NC(=O)[C@H]1CN(C2CCN(c3nnc(N)[nH]3)CC2)[C@@H](Cc2ccc(Cl)cc2)CO1 (stereo partly drawn) [Example 23, (2R,5S)-4-(1-(5-amino-4H-1,2,4-triazol-3-yl)piperidin-4-yl)-5-(4-chlorobenzyl)-N-(2,2-dimethylcyclopropyl)morpholine-2-carboxamide 2,2,2-trifluoroacetate]	> 7.00	> 7.00	< 4.00
Nc1nnc(N2CCC(N3C[C@H](Cc4nn[nH]n4)OC[C@@H]3Cc3ccc(Cl)cc3)CC2)[nH]1 [Example 4, 5-(4-((2S,5S)-2-((2H-tetrazol-5-yl)methyl)-5-(4-chlorobenzyl)morpholino)-piperidin-1-yl)-4H-1,2,4-triazol-3-amine 2,2,2-trifluoroacetate]	> 7.00	> 7.00	< 4.00
N#CC[C@H]1CN(C2CCN(c3nnc(N)[nH]3)CC2)[C@@H](Cc2ccc(Cl)cc2)CO1 [Example 6, 2-((2S,5S)-4-(1-(5-amino-4H-1,2,4-triazol-3-yl)piperidin-4-yl)-5-(4-chlorobenzyl)-morpholin-2-yl)acetonitrile 2,2,2-trifluoroacetate]	> 7.00	> 7.00	< 4.00
Nc1nnc(N2CCC(N3C[C@H](Cn4ccnn4)OC[C@@H]3Cc3ccc(Cl)cc3)CC2)[nH]1 [Example 21, 5-(4-((2R,5S)-2-((1H-1,2,3-triazol-1-yl)methyl)-5-(4-chlorobenzyl)morpholino)-piperidin-1-yl)-4H-1,2,4-triazol-3-amine 2,2,2-trifluoroacetate]	> 7.00	> 7.00	4.00 to 4.60
Nc1nnc(N2CCC(N3C[C@H](C(=O)NC4CC4)OC[C@@H]3Cc3ccc(Cl)cc3)CC2)[nH]1 [Example 24, (2R,5S)-4-(1-(5-amino-4H-1,2,4-triazol-3-yl)piperidin-4-yl)-5-(4-chlorobenzyl)-N-cyclopropylmorpholine-2-carboxamide 2,2,2-trifluoroacetate]	> 7.00	> 7.00	< 4.00
